According to article PMC10165273, “Itch receptor MRGPRX4 interacts with the receptor activity–modifying proteins” (The Journal of Biological Chemistry, 2023):
Values joined by “and” are separate entries in the source; they are usually repeats but may differ in a detail not shown here. Equal entries are not always repeated.

Experiments:
[1] = tested on: mock-transfected HEK293T cells; assay: IP1 accumulation, mock-transfected cells; type: cell-based, human; parameters: IP1 Basal / IP1 span / IP1 Emax / IP1 accumulation, dose-response (Figure 1a) / IP1 accumulation with YM (Figure 1c) / IP1 accumulation: unit not given here; conditions: pcDNA (mock), individual replicates
MRGPRX4 + RAMP2 = target: T1, MRGPRX4 + RAMP2 (Homo sapiens, UniProt Q96LA9); assay: IP1 accumulation, MRGPRX4 coexpressed with RAMP2; type: cell-based; parameters: key to response to agonist, X4:ramp2.I:2: % IP1: mock-transfected unstimulated = 0%, fully stimulated MRGPRX4 = 100%; key to IP1 Basal / response to agonist, X4:ramp2.I:0.25 / response to agonist, X4:ramp2.I:0.5 / response to agonist, X4:ramp2.I:1: % IP1; unstimulated mock = 0%, fully stimulated MRGPRX4 = 100%; conditions: Figure 4c-f, agonist 100µM, MRGPRX4 = 100
T1 construct: expressed in transfected cells; host or cells: HEK293T
T1 sequence (Q96LA9 whole entry): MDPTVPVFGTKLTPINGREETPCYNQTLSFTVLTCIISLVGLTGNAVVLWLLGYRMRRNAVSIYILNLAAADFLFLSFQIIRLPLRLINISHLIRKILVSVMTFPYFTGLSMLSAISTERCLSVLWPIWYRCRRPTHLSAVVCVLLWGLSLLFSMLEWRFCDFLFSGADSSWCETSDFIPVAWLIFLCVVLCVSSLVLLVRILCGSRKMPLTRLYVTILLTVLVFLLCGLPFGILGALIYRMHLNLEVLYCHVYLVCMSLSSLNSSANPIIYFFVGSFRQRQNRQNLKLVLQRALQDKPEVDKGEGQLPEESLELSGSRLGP

MRGPRX4 + RAMP1 = target: T2, MRGPRX4 + RAMP1 (Homo sapiens, UniProt Q96LA9); assay: IP1 accumulation, MRGPRX4 coexpressed with RAMP1; type: cell-based; parameters: key to IP1 Basal / response to agonist, X4:ramp1.I:1 / response to agonist, X4:ramp1.I:2 / response to agonist, X4:ramp1.I:0.25 / response to agonist, X4:ramp1.I:0.5: % IP1; unstimulated mock = 0%, fully stimulated MRGPRX4 = 100%; conditions: Figure 4c-f, agonist 100µM, MRGPRX4 = 100
T2 construct: expressed in transfected cells; host or cells: HEK293T
T2 sequence (Q96LA9 whole entry): as above

With C[C@H](CCC(=O)NCCS(=O)(=O)O)[C@H]1CC[C@H]2[C@@H]3CC[C@@H]4C[C@H](O)CC[C@]4(C)[C@H]3C[C@H](O)[C@]12C [TDCA, Taurodeoxycholic acid] the “IP1 accumulation, dose-response (Figure 1a)” value (from here on “IP1 accumulation”) ([1]; log [agonist] (M) -4) was 0.277 and 0.4314 and 0.7552 and 0.05214 and 0.8196 and 0.004346 and 0.07799 and 0.2082 and -0.7055 and 0.02887 and 0.02154 and -0.2702, the “IP1 accumulation” value ([1]; log [agonist] (M) -4.95424) was 0.666 and 0.2913 and 0.6803 and 0.05284 and 0.1544 and 0.254 and 0.03541 and -0.4236 and -0.5986 and 0.1648 and -0.7514 and -0.1187 and the “IP1 accumulation” value ([1]; log [agonist] (M) -5.90849) was 0.6055 and 0.3564 and 0.9177 and 0.421 and 0.4207 and 0.09062 and 0.2243 and -0.1271 and -0.5946 and 0.5044 and 0.1318 and -0.2093. The “IP1 accumulation” value ([1]; log [agonist] (M) -6.86273) was 0.7575 and 0.6878 and 1.269 and 0.5282 and 0.9623 and 0.4904 and 0.6445 and 0.2971 and -0.08157 and 1.2983 and 1.581 and 1.374, the “response to agonist, X4:ramp2.I:0.25” value (MRGPRX4 + RAMP2; X4:ramp2 1:0.25) was 76.6313 and 76.3781 and the “response to agonist, X4:ramp2.I:0.5” value (MRGPRX4 + RAMP2; X4:ramp2 1:0.5) was 59.1022 and 61.5718. For the same compound, the “response to agonist, X4:ramp2.I:1” value (MRGPRX4 + RAMP2; X4:ramp2 1:1) was 39.1806 and 35.15, the “response to agonist, X4:ramp2.I:2” value (MRGPRX4 + RAMP2; X4:ramp2 1:2) was 12.332 and 15.0971 and the “response to agonist, X4:ramp1.I:0.25” value (MRGPRX4 + RAMP1; X4:ramp1 1:0.25) was 91.5401 and 91.7191. The “response to agonist, X4:ramp1.I:0.5” value (MRGPRX4 + RAMP1; X4:ramp1 1:0.5) was 85.1903 and 91.5141, the “response to agonist, X4:ramp1.I:1” value (MRGPRX4 + RAMP1; X4:ramp1 1:1) was 95.31 and 91.9832 and the “response to agonist, X4:ramp1.I:2” value (MRGPRX4 + RAMP1; X4:ramp1 1:2) was 89.0717 and 99.7164.
